Measured values taken from patent US10662164B2, “Non-beta lactam antibiotics” (University of Notre Dame du Lac, priority 2014, dated 2020).
In brackets after ≈: the same amount, converted by molar mass. Entries after “also recorded” stand apart in the source; their conditions may differ. Where two headings read alike, the source gives them in different places.

How the values were obtained:
E. faecium NCTC 7171 = assay: MIC determination; format: cell-based, Enterococcus faecium; details: for MIC: Enterococcus faecium
S. aureus ATCC 29213 = assay: MIC determination; format: cell-based, Staphylococcus aureus; details: for antibacterial activity in words (SAR, ring A derivatives): S. aureus ATCC 29213, compounds of Schemes 3-4; for S. aureus ATCC 29213 MIC: Table 3.1, compounds of Schemes 2-4
[1] = NCTC7171, Table 3.1, compounds of Schemes 2-4, read-out: E. faecium NCTC 7171 MIC
[2] = Staphylococcus aureus, ATCC29213, Table 3.1 and SAR text, compounds of Schemes 2-4, read-out: S. aureus ATCC 29213 MIC
[3] = NCTC7171, read-out: E. faecium NCTC 7171 MIC
[4] = Staphylococcus aureus, ATCC29213, read-out: S. aureus ATCC 29213 MIC
[5] = S. aureus ATCC29213, second numbering, compounds of Scheme 6
[6] = Table 3.1, compounds of Schemes 2-4

MIC (E. faecium NCTC 7171; [1]) [µg/mL]	MIC (S. aureus ATCC 29213; [2]) [µg/mL]	SMILES	other results
16 (≈ 41.8 µM)	1 (≈ 2.61 µM)	Brc1c[nH]nc1-c1nc(-c2ccc(Oc3ccccc3)cc2)no1 [61a]	
32 (≈ 74.4 µM)	1 (≈ 2.32 µM)	Ic1c[nH]nc1-c1nc(-c2ccc(Oc3ccccc3)cc2)no1 [62a]	
1 (≈ 3.03 µM)	1 (≈ 3.03 µM)	Oc1ccc(-c2nc(-c3ccc(Oc4ccccc4)cc3)no2)cc1 [Compound 57a]	
1 (≈ 2.87 µM)	1 (≈ 2.87 µM)	Oc1ccc(-c2nc(-c3ccc(Oc4ccc(F)cc4)cc3)no2)cc1 [Compound 57c]	
		Nc1ccc(-c2nc(-c3ccc(Oc4ccccc4)cc3)no2)cc1 [Compound 58a]	MIC (E. faecium NCTC 7171; [3]): 2 µg/mL (≈ 6.07 µM); MIC (S. aureus ATCC 29213; [4]): 4 µg/mL (≈ 12.1 µM)
2 (≈ 5.03 µM)	1 (≈ 2.52 µM)	Nc1ccc(-c2nc(-c3ccc(Oc4ccc(C(F)(F)F)cc4)cc3)no2)cc1 [Compound 58b]	
> 128	> 128	Nc1ccc(-c2nc(-c3ccc(Oc4ccc(F)cc4)cc3)no2)cc1 [Compound 58c]	antibacterial activity in words (SAR, ring A derivatives) (S. aureus ATCC 29213): no antibiotic activity; also recorded: inactive
		Clc1c[nH]nc1-c1nc(-c2ccc(Oc3ccccc3)cc2)no1 [Compound 60a]	MIC (E. faecium NCTC 7171; [3]): > 128 µg/mL; MIC (S. aureus ATCC 29213; [5]): 8 µg/mL (≈ 23.6 µM); MIC (S. aureus ATCC 29213; [4]): 1 µg/mL (≈ 2.95 µM)
> 128	1 (≈ 2.22 µM)	FC(F)(F)c1ccc(Oc2ccc(-c3noc(-c4n[nH]cc4Br)n3)cc2)cc1 [Compound 61b]	
32 (≈ 64.2 µM)	2 (≈ 4.01 µM)	FC(F)(F)c1ccc(Oc2ccc(-c3noc(-c4n[nH]cc4I)n3)cc2)cc1 [Compound 62b]	
2 (≈ 4.79 µM)	2 (≈ 4.79 µM)	O=[N+]([O-])c1c[nH]nc1-c1nc(-c2ccc(Oc3ccc(C(F)(F)F)cc3)cc2)no1 [Compound 63b, 5-(4-Nitro-1H-pyrazole-3-yl)-3-(4-(4-(trifluoromethyl)phenoxy)phenyl)-1,2,4-oxadiazole]	
4 (≈ 10.9 µM)	1 (≈ 2.72 µM)	O=[N+]([O-])c1c[nH]nc1-c1nc(-c2ccc(Oc3ccc(F)cc3)cc2)no1 [Compound 63c]	
		Nc1c[nH]nc1-c1nc(-c2ccc(Oc3ccccc3)cc2)no1 [Compound 64a]	MIC (E. faecium NCTC 7171; [3]): 32 µg/mL (≈ 100 µM); antibacterial activity in words (SAR, C/D ring derivatives) (S. aureus ATCC 29213; [5]): retained activity; MIC (S. aureus ATCC 29213; [4]): 16 µg/mL (≈ 50.1 µM)
16 (≈ 41.3 µM)	4 (≈ 10.3 µM)	Nc1c[nH]nc1-c1nc(-c2ccc(Oc3ccc(C(F)(F)F)cc3)cc2)no1 [Compound 64b, 3-(3-(4-(4-(Trifluoromethyl)phenoxy)phenyl)-1,2,4-oxadiazol-5-yl)-1H-pyrazol-4-amine]	
32 (≈ 94.9 µM)	16 (≈ 47.4 µM)	Nc1c[nH]nc1-c1nc(-c2ccc(Oc3ccc(F)cc3)cc2)no1 [Compound 64c]	
		CC(C)Nc1c[nH]nc1-c1nc(-c2ccc(Oc3ccccc3)cc2)no1 [Compound 65a]	MIC (E. faecium NCTC 7171; [3]): > 128 µg/mL; antibacterial activity in words (SAR, C/D ring derivatives) (S. aureus ATCC 29213; [5]): did not alter the activity; MIC (S. aureus ATCC 29213; [4]): 0.5 µg/mL (≈ 1.38 µM)
> 128	2 (≈ 5.03 µM)	N#Cc1c[nH]nc1-c1nc(-c2ccc(Oc3ccc(C(F)(F)F)cc3)cc2)no1 [Compound 67b]	antibacterial activity in words (SAR, ring A derivatives) (S. aureus ATCC 29213): good activity
128 (≈ 309 µM)	2 (≈ 4.83 µM)	Oc1ccc(-c2nc(-c3ccc(Oc4ccc(C(F)(F)F)cc4)cc3)no2)cc1O [Compound 69b]	
8 (≈ 22 µM)	4 (≈ 11 µM)	Oc1ccc(-c2nc(-c3ccc(Oc4ccc(F)cc4)cc3)no2)cc1O [Compound 69c]	
4 (≈ 11.5 µM)	4 (≈ 11.5 µM)	Oc1ccc(-c2nc(-c3ccc(Oc4ccccc4)cc3)no2)cc1F [Compound 70a]	

MIC (E. faecium NCTC 7171; [1]) [µg/mL]	MIC (S. aureus ATCC 29213; [2]) [µg/mL]	SMILES	other results
		Oc1ccc(-c2nc(-c3ccc(Oc4ccc(C(F)(F)F)cc4)cc3)no2)cc1F [Compound 70b]	E. faecium NCTC 7171 MIC (E. faecium NCTC 7171; [6]): 2 µg/mL; S. aureus ATCC 29213 MIC (S. aureus ATCC 29213): 2 µg/mL
2 (≈ 5.46 µM)	2 (≈ 5.46 µM)	Oc1ccc(-c2nc(-c3ccc(Oc4ccc(F)cc4)cc3)no2)cc1F [Compound 70c]	
		Oc1c(F)cc(-c2nc(-c3ccc(Oc4ccc(C(F)(F)F)cc4)cc3)no2)cc1F [Compound 71b]	E. faecium NCTC 7171 MIC (E. faecium NCTC 7171; [6]): 2 µg/mL; S. aureus ATCC 29213 MIC (S. aureus ATCC 29213): 2 µg/mL
4 (≈ 10.4 µM)	8 (≈ 20.8 µM)	Oc1c(F)cc(-c2nc(-c3ccc(Oc4ccc(F)cc4)cc3)no2)cc1F [Compound 71c]	
		Nc1ccc(-c2nc(-c3ccc(Oc4ccccc4)cc3)no2)cc1F [Compound 72a]	MIC (E. faecium NCTC 7171; [3]): > 32 µg/mL; antibacterial activity in words (SAR, C/D ring derivatives) (S. aureus ATCC 29213; [5]): inactive; MIC (S. aureus ATCC 29213; [4]): > 128 µg/mL
2 (≈ 4.82 µM)	2 (≈ 4.82 µM)	Nc1ccc(-c2nc(-c3ccc(Oc4ccc(C(F)(F)F)cc4)cc3)no2)cc1F [Compound 72b]	
8 (≈ 23.2 µM)		Oc1ccc(Cc2nc(-c3ccc(Oc4ccccc4)cc3)no2)cc1 [Compound 74a]	
2 (≈ 5.66 µM)	2 (≈ 5.66 µM)	c1ccc(Oc2ccc(-c3noc(-c4ccc5[nH]ccc5c4)n3)cc2)cc1 [Compound 75a]	
2 (≈ 5.39 µM)	2 (≈ 5.39 µM)	Fc1ccc(Oc2ccc(-c3noc(-c4ccc5[nH]ccc5c4)n3)cc2)cc1 [Compound 75c]	
128 (≈ 397 µM)	> 128	Fc1ccc(Oc2ccc(-c3noc(-c4cnc[nH]4)n3)cc2)cc1 [Compound 76c]	antibacterial activity in words (SAR, ring A derivatives) (S. aureus ATCC 29213): no activity
4 (≈ 9 µM)	8 (≈ 18 µM)	O=[N+]([O-])c1cc(-c2nc(-c3ccc(Oc4ccc(C(F)(F)F)cc4)cc3)no2)cnc1O [Compound 77b]	
4 (≈ 10.1 µM)	8 (≈ 20.3 µM)	O=[N+]([O-])c1cc(-c2nc(-c3ccc(Oc4ccc(F)cc4)cc3)no2)cnc1O [Compound 77c]	
64 (≈ 154 µM)	8 (≈ 19.2 µM)	O=[N+]([O-])c1c[nH]c(-c2nc(-c3ccc(Oc4ccc(C(F)(F)F)cc4)cc3)no2)c1 [Compound 78b]	antibacterial activity in words (SAR, ring A derivatives) (S. aureus ATCC 29213): retained good activity
128 (≈ 349 µM)	> 128	O=[N+]([O-])c1c[nH]c(-c2nc(-c3ccc(Oc4ccc(F)cc4)cc3)no2)c1 [Compound 78c]	antibacterial activity in words (SAR, ring A derivatives) (S. aureus ATCC 29213): No activity
> 128	8 (≈ 20.7 µM)	C=CCOc1cc(N)ncc1-c1nc(-c2ccc(Oc3ccccc3)cc2)no1 [Compound 79a]	
	> 1000	Fc1ccc(-c2nc(-c3ccc(Oc4ccccc4)cc3)no2)cc1 [Compound 80a]	
	> 1200	Fc1ccc(-c2nc(-c3ccc(Oc4ccc(C(F)(F)F)cc4)cc3)no2)cc1 [Compound 80b]	
	> 1000	FC(F)(F)c1ccc(Oc2ccc(-c3noc(-c4ccc(Br)cc4)n3)cc2)cc1 [Compound 81b]	
> 128	> 128	Fc1ccc(Oc2ccc(-c3noc(-c4ccc(Br)cc4)n3)cc2)cc1 [Compound 81c]	
	256 (≈ 583 µM)	CC(=O)Nc1ccc(-c2nc(-c3ccc(Oc4ccc(C(F)(F)F)cc4)cc3)no2)cc1 [Compound 83b]	

MIC (E. faecium NCTC 7171; [1]) [µg/mL]	MIC (S. aureus ATCC 29213; [2]) [µg/mL]	SMILES	other results
		CCOP(=O)(OCC)c1ccc(-c2nc(-c3ccc(Oc4ccc(F)cc4)cc3)no2)cc1 [Compound 85c]	MIC (E. faecium NCTC 7171; [3]): > 128 µg/mL; MIC (S. aureus ATCC 29213; [4]): > 128 µg/mL
32 (≈ 67.3 µM)	> 128	CS(=O)(=O)Nc1ccc(-c2nc(-c3ccc(Oc4ccc(C(F)(F)F)cc4)cc3)no2)cc1 [Compound 86b]	
128 (≈ 277 µM)	> 128	NS(=O)(=O)c1ccc(-c2nc(-c3ccc(Oc4ccc(C(F)(F)F)cc4)cc3)no2)cc1 [Compound 87b]	
> 128	> 128	NS(=O)(=O)c1ccc(-c2nc(-c3ccc(Oc4ccc(F)cc4)cc3)no2)cc1 [Compound 87c]	
64 (≈ 171 µM)	> 128	NC(=O)c1ccc(-c2nc(-c3ccc(Oc4ccc(F)cc4)cc3)no2)cc1 [Compound 88c]	antibacterial activity in words (SAR, ring A derivatives) (S. aureus ATCC 29213): failed to show significant activity
128 (≈ 340 µM)	> 128	O=C(O)c1ccc(-c2nc(-c3ccc(Oc4ccc(F)cc4)cc3)no2)cc1 [Compound 89c]	antibacterial activity in words (SAR, ring A derivatives) (S. aureus ATCC 29213): failed to show significant activity
> 128	> 128	COC(=O)c1ccc(-c2nc(-c3ccc(Oc4ccc(F)cc4)cc3)no2)cc1 [Compound 90c]	antibacterial activity in words (SAR, ring A derivatives) (S. aureus ATCC 29213): failed to show significant activity
> 128	> 128	O=[N+]([O-])c1cc(-c2nc(-c3ccc(Oc4ccc(F)cc4)cc3)no2)ccc1O [Compound 91c]	antibacterial activity in words (SAR, ring A derivatives) (S. aureus ATCC 29213): failed to show significant activity
128 (≈ 352 µM)	> 128	Nc1cc(-c2nc(-c3ccc(Oc4ccc(F)cc4)cc3)no2)ccc1O [Compound 92c]	antibacterial activity in words (SAR, ring A derivatives) (S. aureus ATCC 29213): failed to show significant activity
> 128	> 128	COc1cc(-c2nc(-c3ccc(Oc4ccccc4)cc3)no2)ccc1N [Compound 94a]	
> 128	> 128	Oc1cccc(-c2nc(-c3ccc(Oc4ccccc4)cc3)no2)c1 [Compound 95a]	antibacterial activity in words (SAR, ring A derivatives) (S. aureus ATCC 29213): failed to show significant activity
		Cl.c1ccc(Oc2ccc(-c3noc(C4CCNCC4)n3)cc2)cc1 [Compound 128a]	E. faecium NCTC 7171 MIC (E. faecium NCTC 7171; [6]): 16 µg/mL
		Cl.c1ccc(Oc2ccc(-c3noc(C4CCCN4)n3)cc2)cc1 (stereo not shown) [Compound 132a]	E. faecium NCTC 7171 MIC (E. faecium NCTC 7171; [6]): 64 µg/mL
> 128		O=C1C[C@H](c2nc(-c3ccc(Oc4ccc(C(F)(F)F)cc4)cc3)no2)CN1 [Compound 133b]	
> 128		O=C1C[C@@H](c2nc(-c3ccc(Oc4ccc(C(F)(F)F)cc4)cc3)no2)CN1 [Compound 134b]	
> 128		O=c1cc(-c2nc(-c3ccc(Oc4ccc(C(F)(F)F)cc4)cc3)no2)[nH]c(=O)[nH]1 [Compound 135b]	
		Cl.NC(Cc1ccccc1)c1nc(-c2ccc(Oc3ccccc3)cc2)no1 (stereo not shown) [Compound 136a]	E. faecium NCTC 7171 MIC (E. faecium NCTC 7171; [6]): >128 µg/mL
		Oc1ccc(-c2nc(-c3ccc(OC4CCCC4)cc3)no2)cc1 [DR-03-235]	MIC S. aureus ATCC 29213 MH (S. aureus ATCC 29213; Mueller Hinton broth, Table 2.2, in µg/mL): 0.5-1

SMILES	MIC (E. faecium NCTC 7171; [1]) [µg/mL]	MIC (S. aureus ATCC 29213; [2]) [µg/mL]	other results
Oc1c(F)cc(-c2nc(-c3ccc(Oc4ccc(C(F)(F)F)cc4)cc3)no2)cc1F [Compound 73b]	4 (≈ 9.21 µM)	4 (≈ 9.21 µM)	
